Data: PubChem BioAssay AID1845207 (Molecular Pharmacology Branch, DTP, NCI, 2023)
Several values for one entry are separate records, joined by “and”; a condition that tells them apart may be missing. Equal entries are not always repeated.

System: NCI-H1876 tumor spheroid viability
Assay: Anticancer human tumor NCI-H1876 cell line growth inhibition;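 note: spheroids exposed to compounds for seven days before the viability read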;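 for viability, T/C: percent of DMSO vehicle control viability so 100% = vehicle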
Conditions: spheroids with HUVEC and MSC; for viability, T/C: stronger effect = lower value
In short: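 Complex tumor spheroids combined malignant cells with endothelial cells and mesenchymal stem cells. DNA-damaging drugs and DNA repair inhibitors were tested alone and in combination, at half-log dilutions down from clinical Cmax (top 10 microM if Cmax unknown), 0.25% DMSO final.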

Structure (SMILES): CC1COCCN1c1cc(-c2ccnn2C)c2ccnc(-c3ccn[nH]3)c2n1 (stereo unspecified) + Cn1nnc2c(C(N)=O)ncn2c1=O
- IC50 (curve of first compound, second compound 1 µM): 55.4 nM
- IC50 (curve of first compound, second compound 3.16 µM): 54.5 nM
- IC50 (curve of first compound, second compound 10 µM): 59.8 nM
- IC50 (curve of first compound, second compound 31.6 µM): 33.6 nM
- IC50 (curve of first compound, second compound 100 µM): < 31.6 nM
- viability, T/C (second compound 1 µM, first compound 0.0316 µM): 57%
- viability, T/C (second compound 1 µM, first compound 0.1 µM): 42.4%
- viability, T/C (second compound 1 µM, first compound 0.316 µM): 30.1%
- viability, T/C (second compound 1 µM, first compound 1 µM): 20.7%
- viability, T/C (second compound 1 µM, first compound 3.16 µM): 11.2%
- viability, T/C (second compound 1 µM, first compound 10 µM): 6.47%
- viability, T/C (second compound 3.16 µM, first compound 0.0316 µM): 57.7%
- viability, T/C (second compound 3.16 µM, first compound 0.1 µM): 41.3%
- viability, T/C (second compound 3.16 µM, first compound 0.316 µM): 30.1%
- viability, T/C (second compound 3.16 µM, first compound 1 µM): 19.4%
- viability, T/C (second compound 3.16 µM, first compound 3.16 µM): 12.5%
- viability, T/C (second compound 3.16 µM, first compound 10 µM): 6.71%
- viability, T/C (second compound 10 µM, first compound 0.0316 µM): 53%
- viability, T/C (second compound 10 µM, first compound 0.1 µM): 49.1%
- viability, T/C (second compound 10 µM, first compound 0.316 µM): 30.1%
- viability, T/C (second compound 10 µM, first compound 1 µM): 20%
- viability, T/C (second compound 10 µM, first compound 3.16 µM): 11%
- viability, T/C (second compound 10 µM, first compound 10 µM): 7.84%
- viability, T/C (second compound 31.6 µM, first compound 0.0316 µM): 51.5%
- viability, T/C (second compound 31.6 µM, first compound 0.1 µM): 35.6%
- viability, T/C (second compound 31.6 µM, first compound 0.316 µM): 29.5%
- viability, T/C (second compound 31.6 µM, first compound 1 µM): 17.2%
- viability, T/C (second compound 31.6 µM, first compound 3.16 µM): 10.8%
- viability, T/C (second compound 31.6 µM, first compound 10 µM): 7.29%
- viability, T/C (second compound 100 µM, first compound 0.0316 µM): 32.2%
- viability, T/C (second compound 100 µM, first compound 0.1 µM): 24%
- viability, T/C (second compound 100 µM, first compound 0.316 µM): 18.8%
- viability, T/C (second compound 100 µM, first compound 1 µM): 11.7%
- viability, T/C (second compound 100 µM, first compound 3.16 µM): 28.5%
- viability, T/C (second compound 100 µM, first compound 10 µM): 6.09%

Structure (SMILES): CNCc1ccc(-c2cc(-c3nc(-c4ccc(S(=O)(=O)C(C)C)cc4)cnc3N)on2)cc1 + CC[C@@]1(O)C(=O)OCc2c1cc1n(c2=O)Cc2cc3c(CN(C)C)c(O)ccc3nc2-1
- IC50 (curve of first compound, second compound 0.003 µM): 56.8 nM
- IC50 (curve of first compound, second compound 0.00949 µM): < 9.49 nM
- IC50 (curve of first compound, second compound 0.03 µM): < 9.49 nM
- IC50 (curve of first compound, second compound 0.0949 µM): < 9.49 nM
- IC50 (curve of first compound, second compound 0.3 µM): < 9.49 nM
- viability, T/C (second compound 0.003 µM, first compound 0.00949 µM): 68%
- viability, T/C (second compound 0.003 µM, first compound 0.03 µM): 57.6%
- viability, T/C (second compound 0.003 µM, first compound 0.0949 µM): 34%
- viability, T/C (second compound 0.003 µM, first compound 0.3 µM): 46.9%
- viability, T/C (second compound 0.003 µM, first compound 0.949 µM): 5.62%
- viability, T/C (second compound 0.003 µM, first compound 3 µM): 0.13%
- viability, T/C (second compound 0.00949 µM, first compound 0.00949 µM): 46.3%
- viability, T/C (second compound 0.00949 µM, first compound 0.03 µM): 34.2%
- viability, T/C (second compound 0.00949 µM, first compound 0.0949 µM): 26.3%
- viability, T/C (second compound 0.00949 µM, first compound 0.3 µM): 18%
- viability, T/C (second compound 0.00949 µM, first compound 0.949 µM): 5.92%
- viability, T/C (second compound 0.00949 µM, first compound 3 µM): 0.13%
- viability, T/C (second compound 0.03 µM, first compound 0.00949 µM): 13.6%
- viability, T/C (second compound 0.03 µM, first compound 0.03 µM): 14.5%
- viability, T/C (second compound 0.03 µM, first compound 0.0949 µM): 16.9%
- viability, T/C (second compound 0.03 µM, first compound 0.3 µM): 19%
- viability, T/C (second compound 0.03 µM, first compound 0.949 µM): 5.1%
- viability, T/C (second compound 0.03 µM, first compound 3 µM): 0.13%
- viability, T/C (second compound 0.0949 µM, first compound 0.00949 µM): 8.73%
- viability, T/C (second compound 0.0949 µM, first compound 0.03 µM): 8.03%
- viability, T/C (second compound 0.0949 µM, first compound 0.0949 µM): 10.2%
- viability, T/C (second compound 0.0949 µM, first compound 0.3 µM): 8.96%
- viability, T/C (second compound 0.0949 µM, first compound 0.949 µM): 3.31%
- viability, T/C (second compound 0.0949 µM, first compound 3 µM): 0.13%
- viability, T/C (second compound 0.3 µM, first compound 0.00949 µM): 3.51%
- viability, T/C (second compound 0.3 µM, first compound 0.03 µM): 3.44%
- viability, T/C (second compound 0.3 µM, first compound 0.0949 µM): 3.53%
- viability, T/C (second compound 0.3 µM, first compound 0.3 µM): 3.41%
- viability, T/C (second compound 0.3 µM, first compound 0.949 µM): 1.38%
- viability, T/C (second compound 0.3 µM, first compound 3 µM): 0.19%

Structure (SMILES): Cn1ncnc1[C@H]1c2n[nH]c(=O)c3cc(F)cc(c23)N[C@@H]1c1ccc(F)cc1
- viability, T/C (compound 0.00949 µM): 88.9% and 68.4% and 87.4%
- viability, T/C (compound 0.03 µM): 73.5% and 65.7% and 71.3%
- viability, T/C (compound 0.0949 µM): 52.3% and 49.7% and 39.4%
- viability, T/C (compound 0.3 µM): 28.3% and 25.2% and 21.1%
- viability, T/C (compound 3 µM): 0.28% and 7.28% and 3.57%
- IC50 (curve of compound): 104 nM and 84.6 nM and 67.4 nM
